In PMC7367283, “A PIP2 substitute mediates voltage sensor-pore coupling in KCNQ activation” (Communications Biology, 2020):
Where “and” joins values, the source holds several entries; their conditions need not be identical. Equal entries are not always repeated.

Legend:
KCNQ1 = KCNQ1 (Homo sapiens, UniProt P51787); test: Two-electrode voltage clamp of WT KCNQ1 expressed in Xenopus oocytes; type: cell-based; settings: for Current: Fig. 3b; for G/Gmax Mean: Fig. 3c; for ΔV1/2 of activation induced by CP1: Fig. 3e dose response; for Time constants of deactivation: Fig. 3d, individual values
From the text: Complementary DNA (cDNA) encoding human KCNQ1 (UniProtKB/Swiss-Prot under accession no. P51787), KCNQ2 (O43526), KCNQ3 (O43525), KCNE1 (P15382), Kir1.1 (P48048), hERG (Q12809), KV4.2 (Q63881), NaV1.5 (Q14524), NaV β1 (Q07699), CaV1.2 (Q13936), CaV β1a (Q02641), CaV α2/δ1 (P54289), and HCN4 (Q9Y3Q4) were subcloned into oocyte expression vectors, respectively. Site-directed mutations of the KCNQ1 channel were all produced by overlap extension polymerase chain reaction (PCR) with high-fidelity Pfu polymerase (Stratagene, CA). The presence of the desired mutation was verified by sequencing the PCR-amplified regions. All the primer sequences used in this study are available in Supplementary Table 1. The complementary RNA (cRNA) of all these channels and mutations was transcribed in vitro with the T3, T7, or SP6 polymerase mMessage mMachine kit (Invitrogen, Thermo Fisher Scientific, MO). The use of Xenopus laevis to obtain oocytes was approved by the Washington University Animal Studies Committee (protocol #20190030). Oocytes were manually dispersed and digested with collagenase (0.5 mg/ml, Sigma-Aldrich, Saint Louis, MO) to remove the follicle cell layer. Stage V or VI oocytes were selected and injected with cRNAs (9.2 ng) of channel or mutations. Especially, to characterize IKs, a mix of cRNAs at a molar ratio 4:1 (KCNQ1:KCNE1) was injected. For KCNQ2/KCNQ3, the molar ratio was 1:1 (KCNQ2:KCNQ3). For sodium channels, a 3:1 molar ratio (β1:NaV1.5) and for calcium channels a weight ratio 1:1:1 (β1:α2/δ1:CaV1.2) was injected, respectively. Injected oocytes were incubated in ND96 solution containing (in mM) 96 NaCl, 2 KCl, 1.8 CaCl2, 1 MgCl2, and 5 HEPES, pH 7.6, supplemented with 2.5 mM Na pyruvate and 1% penicillin-streptomycin, at 18 °C for 3-7 days before recording. All electrophysiological recordings on oocytes and isolated ventricular cells were performed at room temperature (20-23 °C). The whole-oocyte ionic currents were recorded with a GeneClamp 500B amplifier (Axon Instruments, CA) or iTEV90 amplifier (HEKA, Germany) and then sampled at 1 kHz and low-pass-filtered at 2 kHz. The Patchmaster software (HEKA, Germany) was used to acquire data. The Kir1.1 current was recorded with a high K^+ bath solution containing (in mM) 96 KCl, 4 NaCl, 1 CaCl2, 2 MgCl2, and 10 HEPES, pH 7.3-7.4. The HCN4 current was recorded in ND66 solution containing (in mM) 66 NaCl, 32 KCl, 1.8 CaCl2, 1 MgCl2, and 5 HEPES, pH 7.6. All the other potassium channels were recorded in ND96 solution. The currents of CaV1.2 channel were recorded in 40 mM Ba^2+ bath solution containing (in mM) 40 Ba(OH)2, 50 TEA-OH, 2 KOH, and 5 HEPES, adjusted to pH 7.4 with methanesulfonic acid. […] All the chemicals were purchased from Sigma-Aldrich. To measure the I-V relations of the Kir1.1 channel, the test voltage was set from -100 to +60 mV for 1 s with 20-mV increments. […] The HCN4 currents were recorded by a test pulse between -30 and -140 mV in 10-mV step from a holding potential of -30 mV. For all the other potassium channels and CaV1.2 channel, the holding potential was -80 or -100 mV, and the test pulse was applied with 10-mV increment, which was followed with a repolarization pulse at -40 mV before returning to the holding potential. The durations of test and the repolarization pulse vary for different channels to allow the activation and deactivation of the channel to reach their steady states. Electrophysiology data were processed with IGOR (Wavemetrics, Lake Oswego, OR), Clampfit (Molecular Devices, Sunnyvale, CA), and SigmaPlot (SPSS, Inc., San Jose, CA). Normalized tail currents were plotted versus prepulse voltage and fitted with the Boltzmann function G = G0 + 1/(1 + exp(V - V1/2)/S), where G0 is the minimum conductance, V1/2 is the half-maximal voltage of activation, and S is the slope factor. […]

IKs (KCNQ1 + KCNE1) = IKs (KCNQ1 + KCNE1) (Homo sapiens, UniProt P51787); test: IKs co-expressed with CiVSP (PIP2 depletion), two-electrode voltage clamp in Xenopus oocytes; type: cell-based
From the text: We co-expressed KCNQ1 with the voltage-dependent lipid phosphatase CiVSP[44] in Xenopus oocytes and recorded KCNQ1 currents using two-electrode voltage clamp with consecutive depolarizing voltage pulses. […] To more directly test CP1 effects, we applied CP1 to the intracellular side of the inside-out membrane patch that expressed IKs channels.

Current (KCNQ1; 10 µM CP1, 0 mV): 3.7050 µA
Current (KCNQ1; 10 µM CP1, 10 mV): 4.0550 µA
Current (KCNQ1; 10 µM CP1, 20 mV): 4.3975 µA
Current (KCNQ1; 10 µM CP1, 30 mV): 4.6856 µA
Current (KCNQ1; 10 µM CP1, 40 mV): 4.8369 µA
Current (KCNQ1; 10 µM CP1, -10 mV): 3.2725 µA
Current (KCNQ1; 10 µM CP1, -20 mV): 2.9419 µA
Current (KCNQ1; 10 µM CP1, -30 mV): 2.4731 µA
Current (KCNQ1; 10 µM CP1, -40 mV): 1.9956 µA
Current (KCNQ1; 10 µM CP1, -50 mV): 1.5250 µA
Current (KCNQ1; 10 µM CP1, -60 mV): 1.0387 µA
Current (KCNQ1; 10 µM CP1, -70 mV): 0.5337 µA
Current (KCNQ1; 10 µM CP1, -80 mV): 0.1319 µA
Current (KCNQ1; 10 µM CP1, -90 mV): -0.1563 µA
Current (KCNQ1; 10 µM CP1, -100 mV): -0.3112 µA
Current (KCNQ1; 10 µM CP1, -110 mV): -0.3831 µA
Current (KCNQ1; 10 µM CP1, -120 mV): -0.4494 µA
G/Gmax Mean (KCNQ1; 10 µM CP1, 0 mV): 0.9915
G/Gmax Mean (KCNQ1; 10 µM CP1, 10 mV): 0.9924
G/Gmax Mean (KCNQ1; 10 µM CP1, -10 mV): 1.0000
G/Gmax Mean (KCNQ1; 10 µM CP1, -20 mV): 0.9950
G/Gmax Mean (KCNQ1; 10 µM CP1, -30 mV): 0.9789
G/Gmax Mean (KCNQ1; 10 µM CP1, -40 mV): 0.9526
G/Gmax Mean (KCNQ1; 10 µM CP1, -50 mV): 0.9082
G/Gmax Mean (KCNQ1; 10 µM CP1, -60 mV): 0.8392
G/Gmax Mean (KCNQ1; 10 µM CP1, -70 mV): 0.7434
G/Gmax Mean (KCNQ1; 10 µM CP1, -80 mV): 0.6159
G/Gmax Mean (KCNQ1; 10 µM CP1, -90 mV): 0.4868
G/Gmax Mean (KCNQ1; 10 µM CP1, -100 mV): 0.3712
G/Gmax Mean (KCNQ1; 10 µM CP1, -110 mV): 0.2836
G/Gmax Mean (KCNQ1; 10 µM CP1, -120 mV): 0.2306
ΔV1/2 of activation induced by CP1 (KCNQ1; 1 µM CP1, individual values): 10.5419 and 2.1756 and 5.0919
ΔV1/2 of activation induced by CP1 (KCNQ1; 25 µM CP1, individual values): 80.4973 and 70.5486 and 58.5444
ΔV1/2 of activation induced by CP1 (KCNQ1; 50 µM CP1, individual values): 90.4999 and 79.3797 and 90.4855
EC50 (KCNQ1; KCNQ1 expressed alone in oocytes, Hill fit, read-out: EC50 of G–V shift (ΔV1/2 of activation) versus CP1 concentration): 8.73 ± 0.68 µM
ion selectivity of KCNQ1 channels (KCNQ1; Supplementary Fig. 2): does not alter the ion selectivity
G/Gmax (KCNQ1; WT, 10 µM CP1, -20 mV): 1.0000
G/Gmax (KCNQ1; WT, 10 µM CP1, -30 mV): 0.9911
G/Gmax (KCNQ1; WT, 10 µM CP1, -40 mV): 0.9627
G/Gmax (KCNQ1; WT, 10 µM CP1, -50 mV): 0.9093
G/Gmax (KCNQ1; WT, 10 µM CP1, -60 mV): 0.8189
G/Gmax (KCNQ1; WT, 10 µM CP1, -70 mV): 0.6709
G/Gmax (KCNQ1; WT, 10 µM CP1, -80 mV): 0.4831
G/Gmax (KCNQ1; WT, 10 µM CP1, -90 mV): 0.2996
G/Gmax (KCNQ1; WT, 10 µM CP1, -100 mV): 0.1522
G/Gmax (KCNQ1; WT, 10 µM CP1, -110 mV): 0.0549
G/Gmax (KCNQ1; WT, 10 µM CP1, -120 mV): 0.0000
IKs currents after PIP2 depletion (IKs (KCNQ1 + KCNE1); 10 µM CP1, extracellular perfusion, pulses to +60 mV): rescued IKs currents
membrane permeability (IKs (KCNQ1 + KCNE1); inferred from rescue by extracellular perfusion): membrane permeable
SMILES: O=S(=O)([O-])Oc1c(-c2sc3c(ccc4cccc(Cl)c43)c2OS(=O)(=O)[O-])[nH]c2ccc(Br)cc12.[Na+].[Na+] [CP1, DISODIUM 5-BROMO-2-[9-CHLORO-3-(SULFONATOOXY) NAPHTHO [1,2-B] THIEN-2-YL]-1H-INDOL-3-YL SULFATE]
outward current (Icp1/Ictrl) (KCNQ1; 10 µM CP1, Q1, at −10 mV, individual oocytes): 0.8052 and 0.8187 and 0.929 and 0.8224 and 0.7283
∆V1/2 (KCNQ1; 10 µM CP1, Q1, individual oocytes (Fig. 5c)): 44.3815 mV and 57.8695 mV and 53.8703 mV and 54.2596 mV and 54.8585 mV
∆V1/2 (KCNQ1; 10 µM CP1, WT, individual oocytes): 47.2416 mV and 59.5412 mV and 44.3815 mV and 57.8695 mV and 53.8703 mV and 54.2596 mV and 54.8585 mV and 51.8892 mV and 58.8475 mV and 52.7212 mV and 56.3253 mV
τ deact at -120 mV (KCNQ1; 10 µM CP1 treated, Q1, individual oocytes): 1.3301 s and 1.9909 s and 0.8395 s and 0.9034 s and 1.9351 s and 1.4782 s and 1.0081 s
ΔV1/2 of activation induced by CP1 (KCNQ1; 2 µM CP1, individual values): 12.1917 and 9.8070 and 18.4095 and 22.1605 and 21.9879 and 9.1767 and 12.7137
ΔV1/2 of activation induced by CP1 (KCNQ1; 5 µM CP1, individual values): 24.5897 and 25.8044 and 18.4530 and 34.4519 and 16.0115 and 11.0322
ΔV1/2 of activation induced by CP1 (KCNQ1; 10 µM CP1, individual values): 47.2416 and 73.6056 and 59.5412 and 44.3815 and 57.8695 and 53.8703 and 54.2596 and 54.8585 and 51.8892 and 58.8475 and 52.7212 and 56.3253
Time constants of deactivation (KCNQ1; 10 µM CP1, -90 mV): 3656.5 ms and 3430.6 ms and 3945.9 ms and 3244.2 ms
Time constants of deactivation (KCNQ1; 10 µM CP1, -100 mV): 3169.0 ms and 2901.8 ms and 2335.0 ms and 2809.3 ms and 2214.2 ms
Time constants of deactivation (KCNQ1; 10 µM CP1, -110 mV): 1447.9 ms and 2103.3 ms and 1665.7 ms and 1887.0 ms and 1619.5 ms
Time constants of deactivation (KCNQ1; 10 µM CP1, -120 mV): 823.6 ms and 1460.2 ms and 1255.8 ms and 1290.8 ms and 1343.2 ms
